Source: article PMC11258351, “PK/PD investigation of antiviral host matriptase/TMPRSS2 inhibitors in cell models” (Scientific Reports, 2024)

Columns and labels:
CYP2D6 = CYP2D6 (Homo sapiens, UniProt P10635); assay: Fluorometric CYP2D6 activity assay in human hepatic microsomes; details: human liver microsomes; for Inhibition of CYP2D6 activity: protease inhibitors at 50 µM, 15 min 37 °C
CYP1A2 = biological target: T1, CYP1A2 (Homo sapiens, UniProt P05177); assay: Fluorometric CYP1A2 activity assay in human hepatic microsomes; details: human liver microsomes, protease inhibitors at 50 µM, 15 min 37 °C
T1 sequence (P05177 1-516): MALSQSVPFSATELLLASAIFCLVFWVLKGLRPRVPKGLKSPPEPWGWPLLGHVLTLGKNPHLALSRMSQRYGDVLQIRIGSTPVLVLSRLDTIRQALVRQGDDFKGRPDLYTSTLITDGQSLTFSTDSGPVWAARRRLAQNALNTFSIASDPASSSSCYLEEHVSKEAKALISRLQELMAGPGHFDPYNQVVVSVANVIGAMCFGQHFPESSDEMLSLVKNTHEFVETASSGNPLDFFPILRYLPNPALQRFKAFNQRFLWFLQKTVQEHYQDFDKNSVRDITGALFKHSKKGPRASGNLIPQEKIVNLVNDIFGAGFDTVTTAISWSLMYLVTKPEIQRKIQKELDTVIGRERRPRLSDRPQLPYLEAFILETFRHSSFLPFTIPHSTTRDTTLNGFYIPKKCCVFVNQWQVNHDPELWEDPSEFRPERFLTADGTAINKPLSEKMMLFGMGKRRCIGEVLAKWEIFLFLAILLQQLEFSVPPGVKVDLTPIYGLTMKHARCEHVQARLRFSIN

CYP2C19 = CYP2C19 (Homo sapiens, UniProt P33261); assay: Fluorometric CYP2C19 activity assay in human hepatic microsomes; details: human liver microsomes, protease inhibitors at 50 µM, 15 min 37 °C
Sequence of CYP2C19 (P33261 whole entry): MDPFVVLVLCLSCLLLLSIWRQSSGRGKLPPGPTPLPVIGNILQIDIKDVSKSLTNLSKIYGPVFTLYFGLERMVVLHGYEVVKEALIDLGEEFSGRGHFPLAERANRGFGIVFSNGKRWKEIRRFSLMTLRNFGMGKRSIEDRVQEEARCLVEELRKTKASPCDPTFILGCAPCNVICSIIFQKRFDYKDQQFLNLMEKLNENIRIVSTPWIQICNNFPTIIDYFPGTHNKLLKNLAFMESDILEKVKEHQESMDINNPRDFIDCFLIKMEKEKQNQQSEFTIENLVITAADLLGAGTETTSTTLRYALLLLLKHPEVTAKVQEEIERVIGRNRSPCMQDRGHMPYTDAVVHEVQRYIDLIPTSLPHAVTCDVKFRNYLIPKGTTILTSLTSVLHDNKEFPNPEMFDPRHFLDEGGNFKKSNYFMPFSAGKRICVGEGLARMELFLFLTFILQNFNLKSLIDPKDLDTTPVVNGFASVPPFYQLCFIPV

[1] = tested on: H9N2 IAV strain A/quail/Shantou/782/00; assay type: cell-based, influenza A virus; details: MDCK-II cells, MOI 0.01, 50 µM, 24 h
CYP3A4 = CYP3A4 (Homo sapiens, UniProt P08684); assay: Fluorometric CYP3A4 activity assay in human hepatic microsomes; details: for Effect on CYP3A4 enzyme activity: human liver microsomes, 10, 25 and 50 µM
Sequence of CYP3A4 (P08684 whole entry): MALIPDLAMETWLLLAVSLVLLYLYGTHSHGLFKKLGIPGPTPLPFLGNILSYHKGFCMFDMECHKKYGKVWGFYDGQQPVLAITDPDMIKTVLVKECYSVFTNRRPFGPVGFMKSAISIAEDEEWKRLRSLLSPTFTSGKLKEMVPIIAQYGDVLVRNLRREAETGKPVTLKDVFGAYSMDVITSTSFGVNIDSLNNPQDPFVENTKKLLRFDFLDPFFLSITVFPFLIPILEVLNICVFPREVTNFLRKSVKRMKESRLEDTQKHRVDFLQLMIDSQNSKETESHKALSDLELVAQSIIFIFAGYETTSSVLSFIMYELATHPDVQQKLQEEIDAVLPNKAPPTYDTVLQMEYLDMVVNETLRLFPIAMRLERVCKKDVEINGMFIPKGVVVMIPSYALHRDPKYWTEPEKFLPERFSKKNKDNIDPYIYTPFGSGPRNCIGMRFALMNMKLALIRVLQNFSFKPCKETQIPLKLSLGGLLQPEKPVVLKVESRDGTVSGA

[2] = Depletion of inhibitors in human primary hepatocyte suspension (LC-MS/MS); details: human, cryopreserved primary human hepatocytes in suspension; for CLint scaled at 10 µM: intrinsic clearance from primary human hepatocytes scaled to whole liver/body weight
[3] = tested on: human primary hepatocytes; assay: as above; details: for Parent compound retained at the 120-min sampling point / Sampling interval at which significant depletion was first observed: primary human hepatocytes, 10 µM; for Parent compound retained at the 120-min sampling point: % of 0-min concentration, mean ± S.E.M.; for Sampling interval at which significant depletion was first observed: sampling 0-120 min
CYP2C9 = CYP2C9 (Homo sapiens, UniProt P11712); assay: Fluorometric CYP2C9 activity assay in human hepatic microsomes; details: human liver microsomes, protease inhibitors at 50 µM, 15 min 37 °C
Sequence of CYP2C9 (P11712 whole entry): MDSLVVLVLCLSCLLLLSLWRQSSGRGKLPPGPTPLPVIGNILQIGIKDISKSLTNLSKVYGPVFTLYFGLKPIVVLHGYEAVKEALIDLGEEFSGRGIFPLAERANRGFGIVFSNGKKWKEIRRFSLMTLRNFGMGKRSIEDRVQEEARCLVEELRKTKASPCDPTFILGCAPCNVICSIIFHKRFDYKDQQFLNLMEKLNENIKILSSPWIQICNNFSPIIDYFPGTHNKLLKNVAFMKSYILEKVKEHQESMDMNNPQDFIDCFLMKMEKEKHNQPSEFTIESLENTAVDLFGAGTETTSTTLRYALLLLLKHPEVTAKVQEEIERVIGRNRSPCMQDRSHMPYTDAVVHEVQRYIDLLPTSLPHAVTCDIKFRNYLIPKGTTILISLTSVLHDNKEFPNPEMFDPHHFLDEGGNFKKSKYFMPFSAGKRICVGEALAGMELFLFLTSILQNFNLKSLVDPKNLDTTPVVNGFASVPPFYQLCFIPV

[4] = Prediction of in vivo human PK parameters from hepatocyte clearance; assay type: in vitro ADME; details: for Classification (extraction type) / Extraction ratio EH: predicted; for Predicted Cl, CLH: predicted from hepatocyte Clint, fu = 1
[5] = tested on: cynomolgus monkey hepatocytes; set-up: method as in PMID 31391268; details: cited from earlier work
H9N2 = details: MDCK-II cells, 20 μM and 50 μM; cited from earlier work

Sequence of CYP2D6 (P10635 whole entry): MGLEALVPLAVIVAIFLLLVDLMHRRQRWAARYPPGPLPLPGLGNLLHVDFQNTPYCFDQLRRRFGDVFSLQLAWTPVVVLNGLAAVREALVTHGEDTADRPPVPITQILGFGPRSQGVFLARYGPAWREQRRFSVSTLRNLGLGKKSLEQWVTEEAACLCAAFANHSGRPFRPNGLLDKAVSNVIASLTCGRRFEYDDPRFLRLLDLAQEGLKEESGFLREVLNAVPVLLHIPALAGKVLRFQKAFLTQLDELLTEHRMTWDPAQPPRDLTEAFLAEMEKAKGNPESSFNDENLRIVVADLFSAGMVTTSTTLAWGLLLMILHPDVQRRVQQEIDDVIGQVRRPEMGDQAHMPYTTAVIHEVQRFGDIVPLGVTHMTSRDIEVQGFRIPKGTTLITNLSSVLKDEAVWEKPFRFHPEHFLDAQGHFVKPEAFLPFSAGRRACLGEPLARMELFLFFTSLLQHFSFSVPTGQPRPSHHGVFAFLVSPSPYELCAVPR

Row | Structure (SMILES) | Inhibition of CYP2D6 activity by reference inhibitor (CYP2D6; 3 µM, p < 0.001) | Inhibition of CYP1A2 activity (CYP1A2) | Inhibition of CYP2C19 activity (CYP2C19) | H9N2 viral spread / formation of viral foci [1] | Effect on CYP3A4 enzyme activity (CYP3A4) | half-life at 10 µM [2] [h] | CLint scaled at 10 µM [2] [mL/min/kg] | CLint ([3]; intrinsic clearance from primary human hepatocytes scaled to whole liver/body weight) [mL/min/kg] | Parent compound retained at the 120-min sampling point [3] [%] | Sampling interval at which significant depletion was first observed [3] [min] | Inhibition of CYP2D6 activity (CYP2D6) | Inhibition of CYP2C9 activity (CYP2C9) | Classification (extraction type) [4] | Extraction ratio EH [4] | Predicted Cl, CLH [4] | Treatment time after which significant conversion was seen [5] [min] | Effect on CYP3A4 enzyme activity at the lowest applied concentration (CYP3A4; human liver microsomes, lowest applied concentration (10 µM)) | Effect on H9N2 virus propagation (H9N2)
1 | C=C[C@H]1C[N@@]2CC[C@H]1C[C@@H]2[C@@H](O)c1ccnc2ccc(OC)cc12 [quinidine, reference compound] | significantly suppressed |  |  |  |  |  |  |  |  |  |  |  |  |  |  |  |  | 
2 | CC(C)(C)NC(=O)NC1CCN(C(=O)[C@H](Cc2cccc(C(=N)N)c2)NS(=O)(=O)c2cccc(-c3ccc(CO)cc3)c2)CC1 [MI-1903] |  | No significant CYP inhibitory potential | No significant CYP inhibitory potential | only slightly reduced formation of viral foci | significant inhibitory effect | 0.753 | 101 | 101.03 | 38.6 ± 5.5 | 30 | No significant CYP inhibitory potential | No significant CYP inhibitory potential | Intermediate | 0.51 | 10.56 |  |  | 
3 | COc1ccc(-c2cccc(S(=O)(=O)N[C@@H](Cc3cccc(C(=N)N)c3)C(=O)N3CCC(NC(=O)NC(C)(C)C)CC3)c2)c(OC)c1 [MI-485] |  | No significant CYP inhibitory potential | No significant CYP inhibitory potential |  | significant inhibitory effect | 2.86 | 26.6 |  | 64.9 ± 5.3 | 30 | No significant CYP inhibitory potential | No significant CYP inhibitory potential | Intermediate | 0.39 | 8.17 | 60 to 120 | potent inhibitors | most pronounced reduction
4 | CC(C)(C)NC(=O)NC1CCN(C(=O)[C@H](Cc2cccc(C(=N)N)c2)NS(=O)(=O)c2cccc(-c3ccc(CO)c(F)c3)c2)CC1 [MI-1904] |  | No significant CYP inhibitory potential | No significant CYP inhibitory potential |  | significant inhibitory effect | 3.99 | 19.1 |  | 70.8 ± 8.6 | 120 | No significant CYP inhibitory potential | No significant CYP inhibitory potential | Intermediate | 0.35 | 7.29 |  |  | most pronounced reduction
